# Measured values published in patent US9453051B2, “Cyclosporin derivatives” (priority 2011, dated 2016).
# Key:
# [1] = test system: NFAT; test: Cellular NFAT-reporter-gene assay (GloResponse NFAT-RE-luc2P HEK293); assay type: cell-based; conditions: Homo sapiens, HEK293, 16 h, read-out: NFAT-reporter-gene assay IC50
# Source text: An antigen specific stimulation of the T-cell receptor causes the activation of transcription factors such as e.g. NFAT (nuclear factor of activated T cells). NFAT-activation is essential for the expression of interleukine-2 and therefore, for the proliferation of T-cells as part of the immune response. A stable NFAT-reporter-gene cell line enables the analysis of modulators of the NFAT-pathways and thus, the evaluation of the immunosuppressive effects of compounds.
# The stably transfected reporter-gene cell line GloResponse NFAT-RE-luc2P HEK293 (promega Corp. USA) was cultivated in DMEM (10% FCS; 2 mM Glutamin; 200 μg/ml Hygromycin) and seeded on 96-well plates (200.000 cells/well). The compounds to be tested were either added to the cells in a 2-point-determination (5 μM and 10 μM) or an ICH-determination (concentration series 4.1 nM-1 μM). […] Immediately thereafter the cells were stimulated with 5 nM PMA and 2 μM ionomycin and incubated over 16 h (37° C.; cell incubator). This double stimulation simulates a T-cell receptor stimulation and causes a NFAT activation with subsequently expression of the luciferase-reporter-gene. The amount of luciferase was quantitatively determined after 16 h by measurement of the bioluminescence by Bright-Glo Luciferase-Assay-System (Promega Corp., USA). The averaged luciferase values of the vehicle treated (1% DMSO) and with PMA/ionomycin stimulated cells were used as positive control and reference value.
# [2] = Determination of cell permeability in PAMPA cell membranes (Parallel Artificial Membrane Permeability Assay); assay type: in vitro ADME; conditions: 500 μM, Hepes buffer pH 7.4, 16 hours, room temperature
# Description: After an incubation of 16 hours at room temperature in a liquid chamber the optical density of the solution after filtration has been measured in a range of 250 to 500 nm in steps of 10 nm each. The percentage “Flux” has been calculated from the integral of the graph between 250 and 500 nm and standardized on the optical density determined in the parallel reaction without artificial membrane.
# [3] = in vitro; conditions: human, Caco-2, pH 7.4
# [4] = biological target: recombinant human wild type Cyp18 (Cyp18 wt) (Homo sapiens, UniProt P62937); test: biochemical
# [5] = biological target: calcineurin (Homo sapiens, UniProt P62937+P63098+Q08209); test: Inhibition of the phosphatase activity of calcineurin (scintillation-proximity-assay, in presence of Cyp18);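 further: calcineurin dephosphorylation of a ³³P-labelled RII phosphopeptide, captured on streptavidin-coated wells and read by scintillation counting, with uninhibited enzyme activity taken as 100%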
# Description: The measurement was carried out by incubation of 10 μMol of the biotinylated phosphopeptide [sequence]pSer-Val-Ala-Ala-Glu (MW=2192.0) (RH-peptide) marked with ^33P in a sample buffer (40 mM Tris-HCl, pH 7.5, 100 mM NaCl, 6 mM MgCl2, 0.5 mM dithiothreitol, 1 mM. CaCl2, 0.1 mg/ml bovine serum albumin) in presence of 50 nM calmodulin and 1.32 nM calcineurin at 30° C. for 20 min in a 96 well micro titer plate (Costar, Bodenheim, Germany). The total volume of the assay/well was 100 μl. After this reaction time a 90 μl aliquot of the reaction mixture was transferred into a scintillation cavity coated with streptavidin and incubated for 20 min at 22° C. After a washing step the RII phosphopeptide-associated ^33P radioactivity was measured in a MicroBeta Top Counter (Wallac) and the enzyme activity was indicated as average value of three measurements±S.D. The uninhibited dephosphorylation activity has been set on 100%.
# [6] = test system: Jurkat cells; test: Determination of cell permeability in Jurkat cells (displacement of fluorescent CsA derivative, FACS); assay type: cell-based; conditions: FIG. 1; in comparison to CsA
# Description: Jurkat cells of the cell culture have been harvested and centrifuged. The medium has been discarded and the cells were washed once with RPM′ (without phenol red, 10% FCS, Hepes, gentamicin). The cells were re-suspended in a medium adjusted to a cell concentration of 1.0×10^5-3.0×10^5 cells/ml and subsequently incubated with a fluorescent CsA derivative (0.5 μM-2.0 μM) at 37° C., 5-10% CO2 and 100% humidity. The cells were then centrifuged, the medium discarded and the cell pellet was washed once with medium and the cells were resuspended in a new medium. Subsequently, the cells were incubated for a half hour to 4 hours with the corresponding concentration (0.01 μM to 100 μM) of the test compound to be analyzed and then centrifuged again. The medium was discarded; it was once washed with 1 ml PBS and suspended in 500 μl PBS. The analysis was carried out using FACS-measurement by quantification of the replaced fluorescent CsA-derivative. The reference (without inhibitor) was thereby set 100%.
# [7] = test system: ovalbumin sensitized mice (BALB/c-strain); test: Asthma evaluations (ovalbumin sensitized mice); assay type: in vivo; conditions: 200 μg i.p. at days 7, 9 and 11
# Description: By application of ovalbumin together with aluminium hydroxide an immune response to ovalbumin is provoked. The immune response may be traced using the immigrated T-helper cell population (CD4+) and the immigrated eosinophilic granulocytes. Female mice (BALB/c-strain) were sensitized by intraperitoneal (i.p.) application of 50 μg ovalbumin solved in phosphate buffer (PBS) ((OVA) plus 100 μl aluminium hydroxide) with a total volume of 200 μl per mouse on day 0. 100 μg OVA in PBS (50 μl total volume) was intranasal administered to the ovalbumin sensitized mice under mild anesthesia (isoflurane) at days 7-10. These animals were divided into groups which obtained in addition either 200 μg test compound in PBS (i.p.), only PBS (diluent) or no further additive (−) at days 7, 9 and 11. At day 12 all animals were sacrificed by CO2 exposition and cells of the bronchial tract were obtained by bronchial lavage (BAL) with threefold washing with 1 ml of cold PBS each using a cannula introduced into the trachea. The cells obtained by BAL were then stained twice (a) with Cy-chrome conjugated anti-mouse CD4 antibodies and (b) with FITC conjugated anti-mouse CD62L antibodies. Subsequently, the cells were analyzed by FACS. Effector/memory CD4^+ T-cells were differentiated as CD4^+/CD62L^− lymphocytes and eosinophilic cells using their stray light characteristics (FSC/CCS).
# recombinant human wild type Cyp18 (Cyp18 wt), sequence (P62937 whole entry): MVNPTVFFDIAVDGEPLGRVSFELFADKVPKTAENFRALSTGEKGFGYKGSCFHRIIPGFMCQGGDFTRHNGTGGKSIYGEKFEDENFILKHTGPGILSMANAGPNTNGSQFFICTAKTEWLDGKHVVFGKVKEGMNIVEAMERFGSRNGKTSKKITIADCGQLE
Structure (SMILES),IC50 [1] [µM],Cell permeability in PAMPA-cell membranes [2] [% flux],"Papp A→B at 2 h, 5 μM [3] [×10⁻⁶ cm/s]",IC50 [4] [µM],IC50 [5] [µM],"Papp B→A at 2 h, 5 μM [3] [×10⁻⁶ cm/s]",Cell permeability in Jurkat cells [6],Number of eosinophilic granulocytes (eosinophils) in bronchial lavage ([7]; FIG. 3),Number of eosinophilic granulocytes (eosinophils) in lung tissue ([7]; FIG. 4),Number of CD4 positive T-cells in bronchial lavage (BAL) ([7]; FIG. 5),Number of CD4 positive T-cells in the lung tissue ([7]; FIG. 6)
CC[C@@H]1NC(=O)[C@H]([C@H](O)[C@H](C)Cc2nc3cc(NC(=N)N)ccc3[nH]2)N(C)C(=O)[C@H](C(C)C)N(C)C(=O)[C@H](CC(C)C)N(C)C(=O)[C@H](CC(C)C)N(C)C(=O)[C@@H](C)NC(=O)[C@H](C)NC(=O)[C@H](CC(C)C)N(C)C(=O)[C@H](C(C)C)NC(=O)[C@H](CC(C)C)N(C)C(=O)CN(C)C1=O [Compound 46],> 10,13.5,0.4,0.0131,6.63,,,,,,
CC[C@@H]1NC(=O)[C@H]([C@H](O)[C@H](C)Cc2nc3cc(S(N)(=O)=O)ccc3[nH]2)N(C)C(=O)[C@H](C(C)C)N(C)C(=O)[C@H](CC(C)C)N(C)C(=O)[C@H](CC(C)C)N(C)C(=O)[C@@H](C)NC(=O)[C@H](C)NC(=O)[C@H](CC(C)C)N(C)C(=O)[C@H](C(C)C)NC(=O)[C@H](CC(C)C)N(C)C(=O)CN(C)C1=O [Compound 34],> 10,19.9,< 0.6,0.0164,6.4,0.87,,,,,
CC[C@@H]1NC(=O)[C@H]([C@H](O)[C@H](C)Cc2nc3cc(S(=O)(=O)O)ccc3[nH]2)N(C)C(=O)[C@H](C(C)C)N(C)C(=O)[C@H](CC(C)C)N(C)C(=O)[C@H](CC(C)C)N(C)C(=O)[C@@H](C)NC(=O)[C@H](C)NC(=O)[C@H](CC(C)C)N(C)C(=O)[C@H](C(C)C)NC(=O)[C@H](CC(C)C)N(C)C(=O)CN(C)C1=O [Compound 22],> 10,4.1,0.9,0.0087,> 10,,,,,,
CC[C@@H]1NC(=O)[C@H]([C@H](O)[C@H](C)Cc2nc3ccc(C(=O)O)cc3[nH]2)N(C)C(=O)[C@H](C(C)C)N(C)C(=O)[C@H](CC(C)C)N(C)C(=O)[C@H](CC(C)C)N(C)C(=O)[C@@H](C)NC(=O)[C@H](C)NC(=O)[C@H](CC(C)C)N(C)C(=O)[C@H](C(C)C)NC(=O)[C@H](CC(C)C)N(C)C(=O)CN(C)C1=O [Compound 5],> 10,1.7,0.17,,> 10,0.13,not cell permeable,reduced very significantly,reduced very significantly,reduced very significantly,reduced very significantly
CC[C@@H]1NC(=O)[C@H]([C@H](O)[C@H](C)Cc2nc3cc(C(=N)N)ccc3[nH]2)N(C)C(=O)[C@H](C(C)C)N(C)C(=O)[C@H](CC(C)C)N(C)C(=O)[C@H](CC(C)C)N(C)C(=O)[C@@H](C)NC(=O)[C@H](C)NC(=O)[C@H](CC(C)C)N(C)C(=O)[C@H](C(C)C)NC(=O)[C@H](CC(C)C)N(C)C(=O)CN(C)C1=O [Compound 35],> 10,4,< 0.35,0.012,4.8,< 0.46,,,,,
